Test results: patent US7875261B2, “Fluorinated resorufin compounds and their application” (Life Technologies Corporation, priority 2003, dated 2011)
Blank lines part the entries; values can stand above or below the molecule they belong to.

Key:
[1] = Photostability study (continuous irradiation in a spectrofluorimeter); assay type: physicochemical; details: solutions matched by optical density 0.03 at 560 nm, aqueous buffer pH 9, continuous irradiation at 560 nm
Experimental: For example, solutions of each were matched by optical density (0.03 at 560 nm in aqueous buffer at pH 9), then continuously irradiated in a spectrofluorimeter at 560 nm for 30 minutes. Over the duration of the experiment, resorufin photobleached to a greater extent than any of the fluorinated analogs.

[2] = target: T1, horseradish peroxidase (HRP) (Armoracia rusticana, UniProt P00433); test: Detection of horseradish peroxidase activity at acidic pH; assay type: biochemical; details: for Z-factor: pH 5.5, 50 μM H2O2, 60 minutes at 30° C.; for Lower limit of detection of HRP activity: pH 5.5, dye as reporting fluorogenic substrate
T1 sequence (P00433 31-338): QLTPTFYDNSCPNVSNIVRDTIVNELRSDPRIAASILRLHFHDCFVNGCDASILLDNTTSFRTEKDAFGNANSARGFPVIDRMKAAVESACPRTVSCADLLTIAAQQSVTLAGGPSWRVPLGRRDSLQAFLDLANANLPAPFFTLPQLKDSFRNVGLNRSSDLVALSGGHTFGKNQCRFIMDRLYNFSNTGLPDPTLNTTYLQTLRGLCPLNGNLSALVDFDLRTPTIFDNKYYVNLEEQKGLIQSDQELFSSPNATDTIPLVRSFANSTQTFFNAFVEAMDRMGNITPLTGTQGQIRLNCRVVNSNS
Experimental: A dilution series of horseradish peroxidase (HRP; EC 1.11.1.7) was prepared in 0.1 M sodium acetate, pH 5.5. The enzyme dilutions were added to a CoStar 96-well round bottom plate in 50 μL aliquots. Mixtures containing 100 μM hydrogen peroxide (H2O2), 0.1 M sodium acetate, pH 5.5, and 100 μM Amplex Red or 100 μM Compound 4 were prepared, and reactions were initiated by addition of 50 μL of reagent mixture to the enzyme dilution series. Reactions were done in triplicate, for 60 minutes at 30° C. Fluorescence was measured with a CytoFluor® Series 4000 Multi-Well Plate Reader (PerSeptive Biosystems, Framingham, Mass.), 530+/−12.5 nm excitation, 580+/−25 nm emission. The fluorescent signal was graphed as a function of HRP concentration (See, FIG. 9) and the Z-factor (Table 6) was calculated according to Zhang et al. (1999).

Myeloperoxidase = target: T2, Myeloperoxidase (Homo sapiens, UniProt P05164); test: Detection of myeloperoxidase; assay type: biochemical; details: 125 μM Compound 4, 50 μM hydrogen peroxide, PBS, 37° C.
T2 construct: purchased Sigma M-6908
T2 sequence (P05164 49-745): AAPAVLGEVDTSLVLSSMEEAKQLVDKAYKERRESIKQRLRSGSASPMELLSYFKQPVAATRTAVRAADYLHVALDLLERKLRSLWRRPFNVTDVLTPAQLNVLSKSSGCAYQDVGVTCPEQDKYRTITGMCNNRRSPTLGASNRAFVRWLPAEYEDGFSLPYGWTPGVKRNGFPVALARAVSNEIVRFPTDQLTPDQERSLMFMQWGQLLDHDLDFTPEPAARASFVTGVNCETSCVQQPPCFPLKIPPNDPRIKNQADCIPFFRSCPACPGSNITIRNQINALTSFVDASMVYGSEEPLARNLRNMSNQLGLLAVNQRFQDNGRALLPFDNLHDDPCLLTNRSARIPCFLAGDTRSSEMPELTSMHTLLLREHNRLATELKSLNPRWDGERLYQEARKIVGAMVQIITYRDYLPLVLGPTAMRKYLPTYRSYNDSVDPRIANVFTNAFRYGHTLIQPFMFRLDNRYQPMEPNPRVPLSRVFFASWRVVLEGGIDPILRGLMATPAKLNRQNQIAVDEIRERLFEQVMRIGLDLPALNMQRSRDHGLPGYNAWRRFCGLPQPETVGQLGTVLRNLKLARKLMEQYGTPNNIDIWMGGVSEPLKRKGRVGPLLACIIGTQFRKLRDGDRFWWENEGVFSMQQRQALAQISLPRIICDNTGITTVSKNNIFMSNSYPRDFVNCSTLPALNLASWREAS
Experimental: Myeloperoxidase (Sigma # M-6908) was diluted to 1 unit/mL using phosphate buffered saline (PBS, 50 mM sodium phosphate, pH 7.4, 150 mM sodium chloride). The solution was then serially diluted two fold using the same buffer. 50 μL of the preparations were added in a 96-well microplate (Nunc # 449824). 20 μL of 625 μM Compound 4 and 30 μl of 165 μM hydrogen peroxide (Aldrich # 323381) in PBS were added to all wells. The final reagent concentration in the wells was zero to 0.5 U/mL myeloperoxidase, 125 μM Compound 4 and 50 μM hydrogen peroxide in 100 μl of PBS.
The resulting reactions were incubated at 37° C. in a PerSeptive Biosystems CytoFluor 4000 microtiter plate reader (Framingham, Mass.). The excitation filter was 530 nm (+/−12.5 nm) and the emission filter 580 nm (+/−25 nm), with a gain setting of 35. Fluorescence was read every five minutes for up to 30 minutes.

COX-2 = target: T3, COX-2 (Mus musculus, UniProt Q05769); test: Detection of LPS-induced COX-2 activity in RAW 264.7 cell lysate; assay type: biochemical; details: 40 μM dye, 80 μM arachidonic acid, 200,000 lysed cell equivalents, 37° C., twenty minutes, FIG. 7
T3 construct: RAW 264.7 mouse macrophage cells (ATCC # TIB-71) were grown overnight; endogenous in cells; host or cells: RAW 264.7 mouse macrophage cells (ATCC TIB-71), LPS-treated, sonicated lysate
T3 sequence (Q05769 18-604): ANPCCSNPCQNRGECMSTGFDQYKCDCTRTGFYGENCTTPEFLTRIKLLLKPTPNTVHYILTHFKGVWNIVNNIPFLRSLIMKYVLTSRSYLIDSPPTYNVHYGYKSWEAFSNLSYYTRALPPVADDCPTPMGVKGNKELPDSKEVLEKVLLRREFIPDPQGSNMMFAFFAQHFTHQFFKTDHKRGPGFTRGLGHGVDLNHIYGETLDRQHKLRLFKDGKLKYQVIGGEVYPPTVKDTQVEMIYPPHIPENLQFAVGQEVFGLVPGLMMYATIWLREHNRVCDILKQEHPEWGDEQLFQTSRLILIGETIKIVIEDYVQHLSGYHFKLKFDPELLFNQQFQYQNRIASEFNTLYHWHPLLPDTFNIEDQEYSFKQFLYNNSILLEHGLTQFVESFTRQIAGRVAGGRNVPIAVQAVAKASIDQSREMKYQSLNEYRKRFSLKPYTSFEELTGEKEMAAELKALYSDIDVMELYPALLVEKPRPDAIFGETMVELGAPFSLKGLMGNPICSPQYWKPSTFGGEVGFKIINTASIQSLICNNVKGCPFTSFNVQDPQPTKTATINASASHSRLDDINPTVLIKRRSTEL
Experimental: The following morning the old media was removed and replaced with 12 ml fresh, warm, DMEM+10% FBS. To one plate, 12 μl of 100 μg/ml lipopolysaccaride (LPS) from E. coli strain 055:B5 (Sigma, catalog #L2880) in water was added. To the other plate, 12 μl of water alone was added. Both plates were incubated for 8 hours, 37° C., 5% CO2. The cells from each plate were gently resuspended into ice-cold 100 mM Tris, pH 7.5 to 4000 cells/μl (counted by hemocytometer). Both batches of cells were lysed with a probe sonicator for 40 seconds with a 30% duty cycle using power output of 3 on a scale of 1 to 10. 50 μl of the resulting cell lysates were added to a 96-well microplate. […] The plate was incubated at room temperature (˜24° C.) for 10 minutes to allow the COX-2 inhibitor time to inhibit the enzyme.
The resulting reactions were incubated at 37° C. in the dark for twenty minutes. At that point, the resulting fluorescence was measured on a PerSeptive Biosystems CytoFluor 4000 microtiter plate reader (Framingham, Mass.). The excitation filter was 530 nm (+/−12.5 nm) and the emission filter 590 nm (+/−17.5 nm), with a gain setting of 50.

Bovine hemoglobin = target: T4, Bovine hemoglobin (Bos taurus, UniProt P01966+P02070); test: Hemoglobin assay; assay type: biochemical; details: 50 μM dye, 50 μM H2O2, 37° C., thirty minutes, FIG. 3
T4 construct: purchased Sigma H-2500
Experimental: Amplex Red (Molecular Probes Inc. A-12222) and Compound 4 were each resuspended to 10 mM in dry DMSO. Bovine hemoglobin (Sigma, catalog #H-2500) was serially diluted (in triplicate for each dye) two-fold in a 96-well microplate in 50 μl of 50 mM Tris, pH 7.5. 50 μl of either 100 μM Amplex Red+100 μM H2O2 or 100 μM Compound 4+100 μM H2O2 in 50 mM Tris, pH 7.5 was added to all wells. The final reagent concentrations in the wells was zero to 2000 ng/ml bovine hemoglobin, 50 μM H2O2, and 50 μM Amplex Red or Compound 4 in 100 μl of […], pH 7.5.
(§1) The resulting reactions were incubated at 37° C. in the dark for thirty minutes. At that point, the resulting fluorescence was measured on a PerSeptive Biosystems CytoFluor 4000 microtiter plate reader (Framingham, Mass.). The excitation filter was 530 nm (+/−12.5 nm) and the emission filter 590 nm (+/−17.5 nm), with a gain setting of 40.

[3] = target: T5, Recombinant human cyclooxygenase-2 (COX-2) (Homo sapiens, UniProt P35354); test: Cyclooxygenase-2 assay; assay type: biochemical; details: 50 μM dye, 100 μM arachidonic acid, 2 μM hemin, 37° C., thirty minutes, FIG. 2
T5 construct: purchased Cayman Chemical
T5 sequence (P35354 18-604): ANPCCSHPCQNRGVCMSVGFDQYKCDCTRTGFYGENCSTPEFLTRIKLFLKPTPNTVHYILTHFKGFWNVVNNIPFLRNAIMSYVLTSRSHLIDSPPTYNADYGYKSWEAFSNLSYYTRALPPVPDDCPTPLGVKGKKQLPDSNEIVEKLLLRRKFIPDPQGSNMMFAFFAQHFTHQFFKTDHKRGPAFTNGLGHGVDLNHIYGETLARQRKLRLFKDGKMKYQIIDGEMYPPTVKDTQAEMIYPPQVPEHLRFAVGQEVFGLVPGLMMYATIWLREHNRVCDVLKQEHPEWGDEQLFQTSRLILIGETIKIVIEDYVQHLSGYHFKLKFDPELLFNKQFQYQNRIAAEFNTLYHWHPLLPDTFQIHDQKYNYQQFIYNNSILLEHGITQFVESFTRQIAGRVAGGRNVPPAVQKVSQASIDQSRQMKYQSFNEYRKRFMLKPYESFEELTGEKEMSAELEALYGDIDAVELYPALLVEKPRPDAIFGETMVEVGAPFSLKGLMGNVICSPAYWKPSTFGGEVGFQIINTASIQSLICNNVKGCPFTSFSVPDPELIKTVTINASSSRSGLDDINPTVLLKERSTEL
Experimental: Amplex Red (Molecular Probes, Inc. A-12222) and Compound 4 were resuspended to 10 mM in dry DMSO. Recombinant human cyclooxygenase-2 (COX-2, from Cayman Chemical) was serially diluted (in triplicate for each dye) two-fold in a 96-well microplate in 50 μl of 100 mM Tris, pH 8.0. 10 μl of 20 μM hemin (a COX-2 cofactor) in 100 mM Tris, pH 8.0 was added to all wells. After a five minute incubation at room temperature to allow the hemin to interact with the COX-2 enzyme, 40 μl of either 125 μM Amplex Red+250 μM arachidonic acid or 125 μM Compound 4+250 μM arachidonic acid in 100 mM Tris, pH 8.0 was added to all wells. The final reagent concentrations in the wells was zero to 50 Units/ml COX-2, 2 μM hemin, 100 μM arachidonic acid, and 50 μM Amplex Red reagent or Compound 4 in 100 μl of 100 mM Tris, pH 8.0.
as §1

T4 sequence (P01966 2-142 limits assumed): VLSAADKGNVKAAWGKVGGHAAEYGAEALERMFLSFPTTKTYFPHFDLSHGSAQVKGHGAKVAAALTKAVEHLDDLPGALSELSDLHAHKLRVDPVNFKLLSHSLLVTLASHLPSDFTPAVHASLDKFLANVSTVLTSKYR
T4 sequence (P02070 whole entry): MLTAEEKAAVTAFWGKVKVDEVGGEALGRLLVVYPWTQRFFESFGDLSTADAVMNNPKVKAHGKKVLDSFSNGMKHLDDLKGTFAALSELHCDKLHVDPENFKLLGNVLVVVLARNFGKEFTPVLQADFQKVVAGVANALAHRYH

SMILES: O=c1ccc2nc3c(F)c(F)c(O)c(F)c3oc-2c1 [Compound 9]
Fluorescence remaining after irradiation for 30 minutes at 560 nm [1]: 98%

SMILES: CC(=O)N1c2ccc(O)cc2Oc2cc(O)ccc21 [Amplex Red, reference compound]
Z-factor ([2]; HRP 0.016 units/mL): 1.30
Z-factor ([2]; HRP 0.063 units/mL): 0.51
Z-factor ([2]; HRP 0.125 units/mL): 0.69
Z-factor ([2]; HRP 0.25 units/mL): 0.85
Lower limit of detection of HRP activity [2]: 0.032 units/mL

SMILES: O=c1ccc2nc3cc(F)c(O)c(F)c3oc-2c1 [Compound 5]
Fluorescence remaining after irradiation for 30 minutes at 560 nm [1]: 96%

SMILES: CC(=O)N1c2cc(F)c(O)cc2Oc2cc(O)c(F)cc21 [Compound 4, 2,8-Difluoro-10-acetyl-3,7-dihydroxyphenoxazine]
Limit of detection of myeloperoxidase (Myeloperoxidase): about 9.6 ng/mL
Limit of detection of myeloperoxidase (Myeloperoxidase; FIG. 10): 0.0078 U/mL
Relative fluorescent signal compared with Amplex Red (COX-2): stronger relative fluorescent signal
Fluorescence brightness compared with Amplex Red (Bovine hemoglobin): brighter
Fluorescent signal compared with Amplex Red [3]: greater fluorescent intensity signal
Z-factor ([2]; HRP 0.016 units/mL): 0.72
Z-factor ([2]; HRP 0.032 units/mL): 0.89
Z-factor ([2]; HRP 0.063 units/mL): 0.90
Z-factor ([2]; HRP 0.125 units/mL): 0.81
Z-factor ([2]; HRP 0.25 units/mL): 0.89
Signal strength and dynamic range compared with Amplex Red ([2]; pH 5.5, FIG. 9): significantly greater
Lower limit of detection of HRP activity [2]: less than 0.016 units/mL

Now from value to molecule:

Fluorescence remaining after irradiation for 30 minutes at 560 nm [1]: 91%
SMILES: O=c1ccc2nc3ccc(O)cc3oc-2c1 [resorufin]

Fluorescence remaining after irradiation for 30 minutes at 560 nm [1]: 94%
SMILES: O=c1ccc2nc3cc(F)c(O)cc3oc-2c1 [Compound 7]

Fluorescence remaining after irradiation for 30 minutes at 560 nm [1]: 97%
SMILES: O=c1ccc2nc3ccc(O)c(F)c3oc-2c1 [Compound 6]

Fluorescence remaining after irradiation for 30 minutes at 560 nm [1]: 95%
SMILES: O=c1ccc2nc3c(F)cc(O)cc3oc-2c1 [Compound 8]
